Patent publication US5183821A, “Method for treating leukemias using N-(2-dimethylaminoethyl)-3-amino-1,8-naphthalimide for treating leukemias and solid tumors” (priority 1991, dated 1993)
“Also recorded” adds a separate entry of the source.

Columns and labels:
L-1210 Lymphoid leukemia [1] = test: Experiment 5: L-1210 i.p., 10^5 cells, acid diluted with saline, female; type: in vivo, Mouse CD2 F1 (CDF1)
Description: (§1) Host: Mouse CD2 F1 (CDF1)
(§2) Tumor: L-1210 Lymphoid leukemia
(§3) Inoculum Site: Intraperitoneal
(§4) Vehicle: Acid diluted with saline
(§5) Treatment schedule (relative to tumor inoculation day): daily on days 1-9
(§6) Day of evaluation (relative to tumor inoculation day): 30
(§7) Parameter: Median survival time (MST) in days
(§8) NCI minimal activity criteria: Percent T/C≥125
(§9) Percent T/C: Ratio of test (T) evaluation to control (C) evaluation expressed as a percentage

L-1210 Lymphoid leukemia [2] = test: Experiment 1: L-1210 i.p., 10^4 cells, acid diluted with saline, male; type: in vivo, Mouse CD2 F1 (CDF1)
Description: as §1, §2
(§10) Inoculum Site: intraperitoneal
Vehicle: Acid Diluted with saline
as §5, §6, §7, §8, §9

B16 Melanocarcinoma = test: NCI screen, B16 Melanocarcinoma, intraperitoneal (summary); type: in vivo, Mouse; conditions: for Antitumor activity in words: B16
Description: (§11) The activity of the compound has been evaluated by experiments carried out under the auspices of the Division of Cancer Treatment, National Cancer Institute, employing techniques considered to be reliable indicators of chemotherapeutic utility in the treatment of forms of cancer in human patients. The details of the methodology employed in the reported experiments may be determined with reference to established NCI screening methods.
(§12) In the experiments conducted by the NCI, evaluation of activity is made on the basis of appropriate parameters, such as median survival time (MST) or change in average tumor diameter (CATD)in ocular micrometer units (OMU).

L-1210 Lymphoid leukemia [3] = test: Experiment 2: L-1210 s.c., 10^5 cells, acid diluted with saline, female; type: in vivo, Mouse CD2 F1 (CDF1)
Description: as §1, §2
Inoculum site: Subcutaneous
as §4, §5, §6, §7, §8, §9

Colon 38 = test: Experiment 15: Colon 38 s.c., saline with Tween-80, female; type: in vivo, Mouse B6 D2 F1 (BDF1)
Description: Host: Mouse B6 D2 F1 (BDF1)
Inoculum Site: Subcutaneous
(§13) Vehicle: Saline with Tween-80
Treatment schedule (relative to tumor inoculation day): Days 2 and 9
Day of evaluation (relative to tumor inoculation day): 20
Parameter: Median tumor weight (MTW) estimated from tumor diameter
NCI minimal activity criteria: Percent T/C≤42
as §9

[4] = test system: P388 Lymphocytic leukemia; test: Experiment 11: P388 i.p., 10^6 cells, saline with Tween-80, female; type: in vivo, Mouse CD2 F1 (CDF1)
Description: as §1
Tumor: P388 Lymphocytic leukemia
as §3, §13, §5, §6, §7
NCI minimal activity criteria: Percent T/C≥120
as §9

M5076 ovarian carcinoma = test: Experiment 21: M5076 i.p., 10^6 cells, acid diluted with saline, female; type: in vivo, Mouse
Description: Tumor: M5076 ovarian carcinoma
as §3, §4
Treatment schedule (relative to tumor inoculation day): every 4 days for 4 times
Day of evaluation (relative to tumor inoculation day): 60
Parameter: Mean survival time (MST) in days
NCI minimal activity criteria: Percent T/C≥125.
Percent T/C: Ratio of test (T) evaluation to control (C) evaluation expressed as a percentage.

L-1210 Lymphoid leukemia [5] = test: Experiment 3: L-1210 i.p., 10^5 cells, saline with Tween-80, male; type: in vivo, Mouse CD2 F1 (CDF1)
Description: as §1, §2, §10, §13
Treatment schedule (relative to tumor inoculation day) daily on days 1-9
as §6
Parameter: Mean survival time (MST) in days.
as §8, §9

[6] = test system: MX-1 mammary tumor xenograft; test: NCI screen, MX-1 breast (mammary) xenograft, renal capsule (summary); type: in vivo, human tumor xenograft in athymic mice; conditions: for Antitumor activity in words: MX-1 mammary xenograft
Description: as §11, §12

L-1210 Lymphoid leukemia [7] = test: Experiment 7: L-1210 i.p., 10^5 cells, acid diluted with saline, male; type: in vivo, Mouse CD2 F1 (CDF1)
Description: as §1, §2, §3, §4, §5, §6, §7, §8, §9

[8] = 16.00 mg/kg i.p., control MTW outside normal limits
[9] = 32.00 mg/kg i.p., control MTW outside normal limits
[10] = 64.00 mg/kg i.p., control MTW outside normal limits

In the case of CN(C)CCN1C(=O)c2cccc3cc(N)cc(c23)C1=O [Example 9, 1H-Benz[de]isoquinoline-1,3(2H)-dione, 5-amino-2-[2-(dimethylamino)ethyl]], the “Median survival time (MST)” value (L-1210 Lymphoid leukemia [1]; 5.00 mg/kg i.p.) is reported as 11.0 days, the “Percent T/C” value (L-1210 Lymphoid leukemia [1]; 5.00 mg/kg i.p.) is reported as 113% and the “Median survival time (MST)” value (L-1210 Lymphoid leukemia [1]; 7.00 mg/kg i.p.) is reported as 11.1 days. For the same compound, the “Percent T/C” value (L-1210 Lymphoid leukemia [1]; 7.00 mg/kg i.p.) was 114%, the “Median survival time (MST)” value (L-1210 Lymphoid leukemia [1]; 10.00 mg/kg i.p.) was 11.4 days and the “Percent T/C” value (L-1210 Lymphoid leukemia [1]; 10.00 mg/kg i.p.) was 117%. For the same compound, the “Median survival time (MST)” value (L-1210 Lymphoid leukemia [1]; 16.00 mg/kg i.p.) was 17.0 days, the “Percent T/C” value (L-1210 Lymphoid leukemia [1]; 16.00 mg/kg i.p.) was 175% and the “Median survival time (MST)” value (L-1210 Lymphoid leukemia [1]; 24.00 mg/kg i.p.) was 13.3 days. For the same compound, the “Percent T/C” value (L-1210 Lymphoid leukemia [1]; 24.00 mg/kg i.p.) was 137%, the “Median survival time (MST)” value (L-1210 Lymphoid leukemia [2]; 2.00 mg/kg i.p.) was 9.9 days and the “Percent T/C” value (L-1210 Lymphoid leukemia [2]; 2.00 mg/kg i.p.) was 107%. The “Median survival time (MST)” value (L-1210 Lymphoid leukemia [2]; 4.00 mg/kg i.p.) was 10.4 days, the “Percent T/C” value (L-1210 Lymphoid leukemia [2]; 4.00 mg/kg i.p.) was 113% and the “Median survival time (MST)” value (L-1210 Lymphoid leukemia [2]; 8.00 mg/kg i.p.) was 12.3 days. The “Percent T/C” value (L-1210 Lymphoid leukemia [2]; 8.00 mg/kg i.p.) was 133%, the “Median survival time (MST)” value (L-1210 Lymphoid leukemia [2]; 16.00 mg/kg i.p.) was 20.0 days and the “Percent T/C” value (L-1210 Lymphoid leukemia [2]; 16.00 mg/kg i.p.) was 217%. The “Median survival time (MST)” value (L-1210 Lymphoid leukemia [2]; 32.00 mg/kg i.p.) was 8.8 days, the “Percent T/C” value (L-1210 Lymphoid leukemia [2]; 32.00 mg/kg i.p.) was 95% and the increased life spans (B16 Melanocarcinoma; 16 mg/kg i.p. days 1-9, three experiments) was 37-55%. The “Antitumor activity in words” value (B16 Melanocarcinoma; listed as BIDA) was “Activity was seen”, the “Antitumor activity in words” value (B16 Melanocarcinoma; listed as the compound) was “at least a reproducible minimal activity; also recorded: active” and the “Table II evaluation” value (B16 Melanocarcinoma; median survival time, 28 tests, full wrapped cell: Reproducible minimal activity) was “Reproducible minimal”. The “Median survival time (MST)” value (L-1210 Lymphoid leukemia [3]; 5.00 mg/kg i.p.) was 8.2 days, the “Percent T/C” value (L-1210 Lymphoid leukemia [3]; 5.00 mg/kg i.p.) was 102% and the “Median survival time (MST)” value (L-1210 Lymphoid leukemia [3]; 7.00 mg/kg i.p.) was 8.3 days. For the same compound, the “Percent T/C” value (L-1210 Lymphoid leukemia [3]; 7.00 mg/kg i.p.) was 103%, the “Median survival time (MST)” value (L-1210 Lymphoid leukemia [3]; 10.00 mg/kg i.p.) was 9.0 days and the “Percent T/C” value (L-1210 Lymphoid leukemia [3]; 10.00 mg/kg i.p.) was 112%. The “Median survival time (MST)” value (L-1210 Lymphoid leukemia [3]; 16.00 mg/kg i.p.) was 12.0 days, the “Percent T/C” value (L-1210 Lymphoid leukemia [3]; 16.00 mg/kg i.p.) was 150% and the “Median survival time (MST)” value (L-1210 Lymphoid leukemia [3]; 24.00 mg/kg i.p.) was 9.3 days. The “Percent T/C” value (L-1210 Lymphoid leukemia [3]; 24.00 mg/kg i.p.) was 116%, the “Median tumor weight (MTW)” value (Colon 38; [8]) was 2261 and the “Percent T/C” value (Colon 38; [8]) was 108%. For the same compound, the “Median tumor weight (MTW)” value (Colon 38; [9]) was 1440, the “Percent T/C” value (Colon 38; [9]) was 69% and the “Median tumor weight (MTW)” value (Colon 38; [10]) was 368. For the same compound, the “Percent T/C” value (Colon 38; [10]) was 17%, the “Median tumor weight (MTW)” value (Colon 38; 128.00 mg/kg i.p.) was “Deaths before evaluation” and the “Median survival time (MST)” value ([4]; 8.00 mg/kg i.p.) was 17.0 days. The “Percent T/C” value ([4]; 8.00 mg/kg i.p.) was 144%, the “Median survival time (MST)” value ([4]; 16.00 mg/kg i.p.) was 21.0 days and the “Percent T/C” value ([4]; 16.00 mg/kg i.p.) was 177%. The “Median survival time (MST)” value ([4]; 32.00 mg/kg i.p.) was 7.3 days, the “Median survival time (MST)” value ([4]; 65.00 mg/kg i.p.) was 6.4 days and the “Mean survival time (MST)” value (M5076 ovarian carcinoma; 4.50 mg/kg i.p.) was 29,0 days. For the same compound, the “Percent T/C” value (M5076 ovarian carcinoma; 4.50 mg/kg i.p.) was 109%, the “Mean survival time (MST)” value (M5076 ovarian carcinoma; 9,00 mg/kg i.p.) was 28,7 days and the “Percent T/C” value (M5076 ovarian carcinoma; 9,00 mg/kg i.p.) was 107%. For the same compound, the “Mean survival time (MST)” value (M5076 ovarian carcinoma; 18,00 mg/kg i.p.) was 30,8 days, the “Percent T/C” value (M5076 ovarian carcinoma; 18,00 mg/kg i.p.) was 115% and the “Mean survival time (MST)” value (M5076 ovarian carcinoma; 36,00 mg/kg i.p.) was 37,0 days. For the same compound, the “Percent T/C” value (M5076 ovarian carcinoma; 36,00 mg/kg i.p.) was 139%, the “Mean survival time (MST)” value (M5076 ovarian carcinoma; 72,00 mg/kg i.p.) was “Toxic” and the “Mean survival time (MST)” value (L-1210 Lymphoid leukemia [5]; 1.00 mg/kg i.p.) was 7.5 days. The “Percent T/C” value (L-1210 Lymphoid leukemia [5]; 1.00 mg/kg i.p.) was 92%, the “Mean survival time (MST)” value (L-1210 Lymphoid leukemia [5]; 2.00 mg/kg i.p.) was 8.3 days and the “Percent T/C” value (L-1210 Lymphoid leukemia [5]; 2.00 mg/kg i.p.) was 102%. For the same compound, the “Mean survival time (MST)” value (L-1210 Lymphoid leukemia [5]; 4.00 mg/kg i.p.) was 8.7 days, the “Percent T/C” value (L-1210 Lymphoid leukemia [5]; 4.00 mg/kg i.p.) was 107% and the “Mean survival time (MST)” value (L-1210 Lymphoid leukemia [5]; 8.00 mg/kg i.p.) was 10.2 days. For the same compound, the “Percent T/C” value (L-1210 Lymphoid leukemia [5]; 8.00 mg/kg i.p.) was 125%, the “Mean survival time (MST)” value (L-1210 Lymphoid leukemia [5]; 16.00 mg/kg i.p.) was 14.2 days and the “Percent T/C” value (L-1210 Lymphoid leukemia [5]; 16.00 mg/kg i.p.) was 175%. For the same compound, the “Mean survival time (MST)” value (L-1210 Lymphoid leukemia [5]; 32.00 mg/kg i.p.) was 7.8 days, the “Percent T/C” value (L-1210 Lymphoid leukemia [5]; 32.00 mg/kg i.p.) was 96% and the “Antitumor activity in words” value ([6]; listed as BIDA) was “No activity was seen”. The “Antitumor activity in words” value ([6]; listed as the compound) was “not active”, the “Table II evaluation” value ([6]; change in average tumor diameter, 4 tests, full wrapped cell: Activity not confirmed) was “Activity not” and the “Median survival time (MST)” value (L-1210 Lymphoid leukemia [7]; 1.00 mg/kg i.p.) was 10.4 days. The “Percent T/C” value (L-1210 Lymphoid leukemia [7]; 1.00 mg/kg i.p.) was 99%, the “Median survival time (MST)” value (L-1210 Lymphoid leukemia [7]; 2.00 mg/kg i.p.) was 10.2 days and the “Percent T/C” value (L-1210 Lymphoid leukemia [7]; 2.00 mg/kg i.p.) was 97%. For the same compound, the “Median survival time (MST)” value (L-1210 Lymphoid leukemia [7]; 4.00 mg/kg i.p.) was 10.4 days, the “Percent T/C” value (L-1210 Lymphoid leukemia [7]; 4.00 mg/kg i.p.) was 99% and the “Median survival time (MST)” value (L-1210 Lymphoid leukemia [7]; 8.00 mg/kg i.p.) was 12.4 days. The “Percent T/C” value (L-1210 Lymphoid leukemia [7]; 8.00 mg/kg i.p.) was 118%, the “Median survival time (MST)” value (L-1210 Lymphoid leukemia [7]; 16.00 mg/kg i.p.) was 11.8 days and the “Percent T/C” value (L-1210 Lymphoid leukemia [7]; 16.00 mg/kg i.p.) was 112%. The “Median survival time (MST)” value (L-1210 Lymphoid leukemia [7]; 32.00 mg/kg i.p.) was 8.0 days.
